Assay results published in patent US20240358684A1, “METHOD FOR ENHANCING INNATE IMMUNE RESPONSE” (Kyoto University, priority 2021, published 2024).

Key:
[1] = tested on: IFNB1; assay type: cell-based, human
[2] = tested on: OAS1 exon 5 splice donor (SD) sequence; test: RNA pull-down assay with OAS1 exon 5 splice donor RNA and western blot; assay type: binding, human; conditions: Calu-3 cell lysate, 10 μM
Method: Calu-3 whole cell lysates were prepared using a lysis buffer containing 10 mM Tris-HCl (pH 7.4), 150 mM NaCl, 1 mM ethylenediaminetetraacetic acid, 1% Triton X-100, 0.1% sodium dodecyl sulphate, 0.25% sodium deoxycholate, and 10% glycerol with protease inhibitors (Nacalai Tesque) and phosphatase inhibitors (Sigma-Aldrich, Munich, Germany), followed by sonication, treatment with DNase I (Promega. Madison, WI, USA) at 37° C. for 5 min, and centrifugation (24,000×g at 4° C. for 15 min). The supernatant was used as the soluble fraction for the RNA-pull down assay. […] This was followed by washing the resultant thrice with tris-buffered saline and elution with Laemmli buffer. Three technical replicates for RNA pull-down assay were independently conducted, three times from a stocked cell lysate. […] Chemiluminescent signals were detected using a ChemiDoc MP Imaging System (Bio-Rad, Hercules, CA, USA).

[3] = tested on: OAS1 splice variants; test: RNA-Seq splice-junction reads for OAS1 splice variants in Calu-3 cells; assay type: cell-based, human; conditions: Calu-3, 10 μM, 18 h
Method: Transcriptome analysis for compound 1-treated Calu-3 cells RNAs were extracted using RNeasy Mini kit (QIAGEN, Hilden, Germany) from Calu-3 cells, treated with 10 μM compound 1 or 0.1% DMSO for 18 h, and applied for RNA-Seq analysis. Three technical replicates for RNA-Seq, where each experiment was independently conducted three times from a stocked total RNA. RNA-seq reads were mapped to the human genome sequences (GRCh38) using STAR (ver. 2.7.1a, https://github.com/alexdobin/STAR) with ENCODE options, using the Ensembl genome annotation (ver. 102). Raw reads were counted with bam files, and TPM values were calculated using RSEM v1.2.31 (https://github.com/deweylab/RSEM). Differentially expressed genes were identified using the method described above. Differential alternative splicing (DAS) events were analyzed with the method previously described (Sakuma et al., 2015) using the rMATS program (http://rnaseq-mats.sourceforge.net/rmats4.1.1/). DAS was defined by the following criteria: FDR<0.01, read counts≥15, and delta Percent Spliced-In (PSI)≥0.05. The DAS events were compared with the gene annotation information, the event types were then classified into events on the exons constituting the productive mRNAs, events on additional exons/regions of the productive mRNAs, and others. For characterizing gene set and transcriptome profiles, the Metascape website (https://imetascape.org/) and Gene Set Enrichment Analysis (GSEA, https://ww.gsea-maigdb.org/gsea/) were used. The same samples were also used for RT-PCR.

[4] = tested on: RNase L pathway (rRNA degradation)

For `N=C1NC(=O)/C(=C/c2ccc3c(c2)CCO3)S1` [compound 1], which “transcription of IFNB1 during viral infection” value [1] is on record?
Its value is “increases”.

What about the “U1snRNP (U1-70k) binding to OAS1 exon 5 donor site” value [2] of the same compound?
The value was “enhanced”.

And the “phosphorylated SRSF6 in OAS1 SD pull-down products” value [2]?
The value was “not detected”.

What about the “p42 variant suppressed (RNA-Seq)” value [3] of the same compound?
Its value is 51%.

And the “p44a variant increased (RNA-Seq)” value [3]?
The value was 130%.

And the “p44b variant increased (RNA-Seq)” value [3]?
The value was 100%.

What about the “28S rRNA peak fold change” value [4] of the same compound?
The value was 0.56.

And the “concentration of decomposition products, sized 2,000-3,000 nucleotides, fold change” value [4]?
Its value is 1.35.
